Literature values, collected in patent US7994258B2, “Hyperbranched polymer having nitroxyl group” (Nissan Chemical Industries, Ltd., priority 2007, dated 2011).

Details: comparison value, measuring conditions not stated

For `O=C([O-])CN(CCN(CC(=O)[O-])CC(=O)O)CCN(CC(=O)[O-])CC(=O)O.[Gd+3]` [GdDTPA], the “relaxivity (r1) of comparator” value is given as 4.0 mM⁻¹ s⁻¹.
